In PMC7466040, “Sevanol and Its Analogues: Chemical Synthesis, Biological Effects and Molecular Docking” (Pharmaceuticals, 2020):

Experiments:
ICR male mice [1] = test: Abdominal constriction test of visceral pain (acetic acid-induced writhing); format: in vivo
Method: Specific pathogen-free outbred ICR male mice (6 to 8 weeks old, weighing 29 to 33 g) were obtained from the Animal Breeding Facility of the Branch of the Shemyakin-Ovchinnikov Institute of Bioorganic Chemistry of the Russian Academy of Sciences (Pushchino). The animals were acclimatized for 2 weeks before the experimental procedures, and were kept in two-corridor barrier rooms under a controlled environment: a temperature of 20 to 24 °C, a relative humidity of 30% to 60%, and a 12 h light cycle. The animals were housed in Type 3 standard polycarbonate cages (820 cm2) on bedding (LIGNOCEL BK 8/15, JRS, Germany), with ad libitum access to feed (SSNIFF V1534-300, Spezialdiaeten, GmbH) and filtered tap water. The mouse cages were also supplied with material for environmental enrichment, i.e., Mouse House (Techniplast, Italy). Sevanol or the vehicle was administered intravenously, intranasally and orally (30 min before testing).
The mice were divided into separate groups, and sevanol or saline was administrated (30 min before testing) as described above. Acetic acid in saline (0.6%, 10 mL/kg) was injected intraperitoneally. The mice were moved into transparent glass cylinders, and the number of writhes was registered for 15 min.
Figure 5 The analgesic and anti-inflammatory effects of sevanol following intravenous, intranasal and per os administration. The effect of sevanol on the acetic acid induced writhing (A–C) and on the mice withdrawal latency on a hot plate in the thermal hyperalgesia test after CFA injection (D–F) upon intravenous (A,D), intranasal (B,E) and oral (C,F) administration. […] The results are presented as the mean ± SD (n = 6–10). The p-values of the sevanol groups vs. the saline group are based on an analysis of variance and on Tukey’s test; * p < 0.05, ** p < 0.005, *** p < 0.001.

mice = test system: mice; set-up: method as in PMID 30545037; settings: parenteral, 0.01–10 mg/kg; cited from earlier work
ICR male mice [2] = test: CFA-induced paw oedema; format: in vivo; settings: p.o. only, not i.v. or i.n., 2, 4, 8 and 24 h
ASIC1a = target: T1, ASIC1a (Rattus norvegicus, UniProt P55926); test: Competition of sevanol with FRRFa peptide on ASIC1a current (integral currents); format: cell-based
T1 construct: expressed in transfected cells; host or cells: Xenopus laevis oocytes (cRNA injection)
T1 sequence (P55926 1-526): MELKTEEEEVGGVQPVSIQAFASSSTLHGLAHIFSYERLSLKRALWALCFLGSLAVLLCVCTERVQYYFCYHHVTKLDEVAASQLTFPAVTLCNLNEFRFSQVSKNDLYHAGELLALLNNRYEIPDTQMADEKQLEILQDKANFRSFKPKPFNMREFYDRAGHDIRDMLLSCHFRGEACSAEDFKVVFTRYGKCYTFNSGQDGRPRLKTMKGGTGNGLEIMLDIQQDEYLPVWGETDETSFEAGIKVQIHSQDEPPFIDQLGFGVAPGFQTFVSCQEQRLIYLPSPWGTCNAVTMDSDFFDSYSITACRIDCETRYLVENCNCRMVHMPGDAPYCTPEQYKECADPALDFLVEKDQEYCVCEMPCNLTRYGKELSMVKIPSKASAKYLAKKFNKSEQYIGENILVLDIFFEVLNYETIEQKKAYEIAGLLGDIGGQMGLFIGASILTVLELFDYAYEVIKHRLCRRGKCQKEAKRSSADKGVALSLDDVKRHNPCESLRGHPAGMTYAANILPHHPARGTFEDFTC
Excerpt: It is known that RF-amide peptides produce a potentiating effect on ASIC1a by inhibiting the channel’s desensitization in the presence of protons (during acidic stimulation). […] Using molecular docking and site-directed mutagenesis, it has been shown that RF-amide peptides are most likely to bind to ASIC1a in the central vestibule of the chicken channel. […] The peptide worsened the effectiveness of the inhibitory action of sevanol on the channel by 1.5 times, and reduced the Hill coefficient (Figure 3). Thus, it can be assumed that the binding site of sevanol also lies in the region of the central vestibule.
Oocytes were harvested from female frogs anaesthetized with tricaine methane sulfonate (MS222) (0.17% solution), and the surgery was performed in an ice bath to avoid heavy bleeding. Defolliculated stage IV and V cells were injected with 2.5 and 10 ng cRNA, synthesized from PCi plasmids containing the rat ASIC1a and rat ASIC3 isoforms, respectively, using the Nanoliter 2000 microinjection system (World Precision Instruments, USA). The injected oocytes were kept for 2–3 days at 17 to 19 °C, and then for up to 5 days at 15 °C in a ND96 medium containing (in mM) 96 NaCl, 2 KCl, 1.8 CaCl2, 1 MgCl2, and 5 HEPES titrated to pH 7.4 with NaOH supplemented with gentamycin (50 μg/mL). Two-electrode voltage clamp recordings were performed at a holding potential of −50 mV using a GeneClamp 500 amplifier (Axon Instruments), and the data were filtered at 20 Hz and digitized at 100 Hz by an AD converter L780 (LCard, Russia). Microelectrodes were filled with 3 M KCl. The conditioning bath solution was ND96; the pH was adjusted to 7.4. The activating test solution was constructed based on the ND-96 buffer, in which 5 mM HEPES was replaced with 10 mM MES and pH was adjusted to 5.5. A computer-controlled valve system was used to achieve a rapid solution exchange in the recording chamber. A four parameter logistic equation was used for the curve-fitting analysis: F(x) = ((a1 − a2)/(1 + (x/x0)n)) + a2, where x is the concentration of the compound; F(x) is the response value at a given concentration of the compound; a1 is the control response value (fixed at 100%); x0 is the IC50 value; n is the Hill coefficient (slope factor); and a2 is the response value at the maximal inhibition (% of control).
Figure 3 Comparison of sevanol (s706) and the Phe-Arg-Arg-Phe-amide peptide (FRRFa) effects on the ASIC1a current. […] (B) Dose–response ASIC1a inhibitory curves for s706 alone (red line) and for s706 in the presence of 200 µM FRRFa (blue line), determined for integral currents. […]

human ASIC3 channels = settings: natural sevanol; read-out: IC50, inhibition of human ASIC3 channels; cited from earlier work

## O=C(O)CC(C(=O)O)C(OC(=O)C1=Cc2cc(O)c(O)cc2C(c2ccc(O)c(O)c2)C1C(=O)OC(C(=O)O)C(CC(=O)O)C(=O)O)C(=O)O (centres unmarked) [sevanol]
ICR male mice [1]; intranasal, 1 mg/kg
  reduction of the number of writhes, i.n.: more than 50%
ICR male mice [1]; intranasal, 30 min before acetic acid
  dose producing statistically significant reduction of writhes, i.n.: higher than 0.1 mg/kg
ICR male mice [1]; intravenous, 1 mg/kg
  reduction of the number of writhes, i.v.: more than 50%
ICR male mice [1]; intravenous, 30 min before acetic acid
  dose producing statistically significant reduction of writhes, i.v.: higher than 0.1 mg/kg
ICR male mice [1]; oral, 1 mg/kg
  reduction of the number of writhes, p.o.: more than 50%
ICR male mice [1]; oral, 30 min before acetic acid
  dose from which effective in reducing writhes, p.o.: ≥ 0.01 mg/kg
ICR male mice [1]; p.o. vs i.v./i.n., both tests
  enhancement of analgesic and anti-inflammatory effect by oral administration versus other routes: 10 fold
mice
  effect on acetic acid-induced writhing: reduced the number of writhes
ICR male mice [2]
  paw oedema reduction: significant reduction in paw oedema
ASIC1a; 200 μM FRRFa vs alone
  worsening of effectiveness of inhibitory action on ASIC1a by FRRFa peptide: 1.5 times
ASIC1a; integral currents, pH 5.5, 15 s pre-incubation, n = 5, read-out: IC50, ASIC1a inhibition, s706 alone
  IC50: 254 ± 31.2 µM
ASIC1a; integral currents, pH 5.5, + 0.2 mM (200 µM) FRRFa, n = 5
  nH, ASIC1a inhibition in the presence of FRRFa: 2.4 ± 0.3
ASIC1a; integral currents, pH 5.5, n = 5
  nH, ASIC1a inhibition, s706 alone: 3.1 ± 0.4
Human ASIC3 channels
  IC50: 300 µM
